Consider eleven molecules from ChEMBL document CHEMBL3867477 (Bioorg Med Chem Lett, 2016).

Series [1] in a line: Displacement of (2S)-N-(2-phenylphenyl)-1-[2-[1-(tritritiomethyl)benzimidazol-2-yl]sulfanylacetyl]pyrrolidine-2-carboxamide from human OX1 receptor Ile408-Val mutant expressed on CHO cell membrane measured after 3 hrs by TopCount method. The format is cell membranes.
In a further series the target is T1, Orexin receptor type 2 (Homo sapiens, UniProt O43614).
T1 sequence (O43614 whole entry): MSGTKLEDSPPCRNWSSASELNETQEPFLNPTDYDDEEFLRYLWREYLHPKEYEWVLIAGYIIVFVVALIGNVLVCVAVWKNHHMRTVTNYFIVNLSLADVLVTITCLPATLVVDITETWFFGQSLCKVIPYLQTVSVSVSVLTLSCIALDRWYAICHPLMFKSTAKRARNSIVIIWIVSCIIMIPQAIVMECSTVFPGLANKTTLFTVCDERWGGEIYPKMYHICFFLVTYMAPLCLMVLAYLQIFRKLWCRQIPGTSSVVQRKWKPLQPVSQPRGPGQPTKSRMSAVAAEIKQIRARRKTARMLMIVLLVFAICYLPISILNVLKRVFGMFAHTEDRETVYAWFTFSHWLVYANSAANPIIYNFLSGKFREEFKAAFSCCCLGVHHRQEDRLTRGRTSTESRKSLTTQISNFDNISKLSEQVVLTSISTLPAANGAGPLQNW
Put plainly: Displacement of (2S)-N-(2-pyrrol-1-ylphenyl)-1-[2-[1-(tritritiomethyl)benzimidazol-2-yl]sulfanylacetyl]pyrrolidine-2-carboxamide from human OX2 receptor expressed on CHO cell membrane measured after 3 hrs by TopCount method. Type of series: cell membranes.

Another series concerns CHO. Put plainly: Selectivity index, ratio of Ki for human OX2 receptor expressed on CHO cell membrane to Ki for Ile408-Val variant human OX1 receptor expressed on CHO cell membrane. The format is cell-based.
Series [2] in a line: Aqueous solubility of the compound at pH 7. To be noted: aqueous medium. Type of series: physicochemical.
The nature of series [3]: Intrinsic clearance in rat liver microsomes. The format is ADME. To be noted: read-out: CLH. (Liver microsomes are a subcellular fraction often used to study metabolism.)
A short description of series [4]: Clearance in rat at 2 mg/kg, iv. The format is ADME, organism-based. The settings on record: in vivo.
The nature of series [5]: Oral bioavailability in rat at 10 mg/kg. The format is ADME, organism-based. The settings on record: in vivo.
For series [6], the target named is Sodium channel protein type 5 subunit alpha (Homo sapiens, UniProt Q14524). Nature of the series: Inhibition of Nav1.5 (unknown origin).
For series [7], the target named is Voltage-dependent L-type calcium channel subunit alpha-1C (Homo sapiens, UniProt Q13936). Nature of the series: Inhibition of Cav1.2 (unknown origin).
Series [8] is described as follows: Aqueous solubility of the compound at pH 2. The format is physicochemical. The settings on record: aqueous medium.
The target in a further series is Cytochrome P450 3A4 (Homo sapiens, UniProt P08684). Put plainly: Inhibition of CYP3A4 (unknown origin). The format is ADME.
Another series deals with Cytochrome P450 2C9 (Homo sapiens, UniProt P11712). Nature of the series: Inhibition of CYP2C9 (unknown origin). Type of series: ADME.
Series [9] in a line: Solubility of the compound. Type of series: physicochemical.

pKi: −log10 of the molar value. Values after ≈ are worked out from the molar mass of the structure shown.

Sequence of Cytochrome P450 2C9 (P11712 whole entry): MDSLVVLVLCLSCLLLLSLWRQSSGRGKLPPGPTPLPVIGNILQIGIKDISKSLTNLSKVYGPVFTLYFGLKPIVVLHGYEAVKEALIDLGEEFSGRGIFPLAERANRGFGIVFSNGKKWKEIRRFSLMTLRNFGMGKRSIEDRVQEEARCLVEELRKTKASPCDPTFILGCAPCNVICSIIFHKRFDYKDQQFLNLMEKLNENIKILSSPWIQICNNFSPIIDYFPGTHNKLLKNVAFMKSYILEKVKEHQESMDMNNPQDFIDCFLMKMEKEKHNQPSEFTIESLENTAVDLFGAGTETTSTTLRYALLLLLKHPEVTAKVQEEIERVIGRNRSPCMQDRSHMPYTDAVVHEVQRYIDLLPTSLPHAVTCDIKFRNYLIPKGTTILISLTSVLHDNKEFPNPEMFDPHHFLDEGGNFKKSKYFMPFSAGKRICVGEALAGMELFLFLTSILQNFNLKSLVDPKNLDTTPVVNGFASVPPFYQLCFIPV
Sequence of Cytochrome P450 3A4 (P08684 whole entry): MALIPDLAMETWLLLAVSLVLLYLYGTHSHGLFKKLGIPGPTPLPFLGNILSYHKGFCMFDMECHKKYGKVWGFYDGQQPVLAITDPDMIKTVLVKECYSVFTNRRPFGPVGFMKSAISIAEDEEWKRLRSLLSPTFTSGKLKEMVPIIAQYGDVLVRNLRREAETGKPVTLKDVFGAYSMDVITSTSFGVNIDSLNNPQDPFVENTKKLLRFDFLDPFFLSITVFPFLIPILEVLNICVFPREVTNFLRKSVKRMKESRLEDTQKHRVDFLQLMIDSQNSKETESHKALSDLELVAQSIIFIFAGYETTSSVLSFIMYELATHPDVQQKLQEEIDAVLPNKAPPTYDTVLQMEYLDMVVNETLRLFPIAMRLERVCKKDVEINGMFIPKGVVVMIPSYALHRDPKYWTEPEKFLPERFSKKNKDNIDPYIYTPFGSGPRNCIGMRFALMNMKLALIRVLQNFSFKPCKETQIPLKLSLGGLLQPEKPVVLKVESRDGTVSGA
Sequence of Voltage-dependent L-type calcium channel subunit alpha-1C (Q13936 whole entry): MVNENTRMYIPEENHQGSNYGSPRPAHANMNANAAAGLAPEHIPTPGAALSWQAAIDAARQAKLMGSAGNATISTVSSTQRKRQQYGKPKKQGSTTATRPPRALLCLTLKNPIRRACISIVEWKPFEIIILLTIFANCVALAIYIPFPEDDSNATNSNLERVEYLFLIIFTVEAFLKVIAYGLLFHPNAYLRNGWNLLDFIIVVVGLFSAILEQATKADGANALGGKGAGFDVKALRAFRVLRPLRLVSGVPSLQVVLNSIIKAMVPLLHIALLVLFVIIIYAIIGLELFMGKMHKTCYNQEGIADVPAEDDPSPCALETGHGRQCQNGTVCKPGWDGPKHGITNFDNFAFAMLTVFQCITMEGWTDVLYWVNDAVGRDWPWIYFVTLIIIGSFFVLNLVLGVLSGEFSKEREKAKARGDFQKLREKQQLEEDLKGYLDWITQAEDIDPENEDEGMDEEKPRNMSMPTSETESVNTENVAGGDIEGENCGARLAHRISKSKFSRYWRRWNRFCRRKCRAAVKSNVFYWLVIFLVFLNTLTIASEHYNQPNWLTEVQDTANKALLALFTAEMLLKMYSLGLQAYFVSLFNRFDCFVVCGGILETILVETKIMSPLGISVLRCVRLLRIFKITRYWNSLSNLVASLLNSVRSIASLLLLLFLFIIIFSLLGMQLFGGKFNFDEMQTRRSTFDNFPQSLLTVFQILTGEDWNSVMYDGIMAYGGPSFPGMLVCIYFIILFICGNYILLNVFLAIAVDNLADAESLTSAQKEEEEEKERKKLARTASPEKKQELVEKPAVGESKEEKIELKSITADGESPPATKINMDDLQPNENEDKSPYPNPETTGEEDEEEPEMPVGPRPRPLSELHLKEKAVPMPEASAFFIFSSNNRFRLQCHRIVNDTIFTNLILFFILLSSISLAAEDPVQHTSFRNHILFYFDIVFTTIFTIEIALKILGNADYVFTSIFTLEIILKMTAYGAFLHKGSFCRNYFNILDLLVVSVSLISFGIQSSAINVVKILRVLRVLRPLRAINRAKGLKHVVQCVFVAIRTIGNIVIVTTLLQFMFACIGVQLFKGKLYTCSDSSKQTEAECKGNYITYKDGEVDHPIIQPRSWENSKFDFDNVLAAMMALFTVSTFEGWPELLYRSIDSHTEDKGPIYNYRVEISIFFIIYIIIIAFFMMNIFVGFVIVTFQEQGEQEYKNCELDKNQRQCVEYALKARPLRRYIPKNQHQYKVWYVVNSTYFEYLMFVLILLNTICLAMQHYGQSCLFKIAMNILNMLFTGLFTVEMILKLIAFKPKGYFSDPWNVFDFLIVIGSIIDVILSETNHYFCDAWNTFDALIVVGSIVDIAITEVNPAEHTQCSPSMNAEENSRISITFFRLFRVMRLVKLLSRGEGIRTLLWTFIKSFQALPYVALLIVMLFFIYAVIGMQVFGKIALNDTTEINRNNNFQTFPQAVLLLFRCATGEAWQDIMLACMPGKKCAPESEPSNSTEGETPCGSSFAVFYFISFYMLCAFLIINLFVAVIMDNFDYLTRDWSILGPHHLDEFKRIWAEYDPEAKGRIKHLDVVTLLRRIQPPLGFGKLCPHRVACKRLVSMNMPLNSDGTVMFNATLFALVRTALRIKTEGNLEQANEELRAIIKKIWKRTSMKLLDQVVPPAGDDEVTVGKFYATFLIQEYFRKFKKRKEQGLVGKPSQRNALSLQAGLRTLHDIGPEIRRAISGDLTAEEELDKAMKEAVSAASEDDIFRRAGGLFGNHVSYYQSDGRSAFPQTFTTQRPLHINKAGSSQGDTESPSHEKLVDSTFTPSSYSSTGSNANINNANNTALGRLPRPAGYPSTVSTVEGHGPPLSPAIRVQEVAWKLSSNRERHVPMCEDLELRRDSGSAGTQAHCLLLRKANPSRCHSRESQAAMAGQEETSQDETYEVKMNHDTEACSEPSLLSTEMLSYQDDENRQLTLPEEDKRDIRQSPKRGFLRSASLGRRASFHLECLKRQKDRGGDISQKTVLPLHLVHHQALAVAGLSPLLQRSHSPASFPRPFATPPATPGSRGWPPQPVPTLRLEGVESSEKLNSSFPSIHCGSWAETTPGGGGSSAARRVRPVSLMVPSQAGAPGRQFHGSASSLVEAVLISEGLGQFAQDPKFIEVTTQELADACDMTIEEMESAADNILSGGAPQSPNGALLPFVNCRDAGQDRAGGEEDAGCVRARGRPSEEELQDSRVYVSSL

What is called pKi is the Ki on a negative log10 scale, so that one unit is a factor of ten. As usually defined, the solubility is the dissolved amount per volume that the medium holds. Low readings indicate little dissolved substance, high ones much dissolved substance. On to `O=C(c1cccc2[nH]ccc12)N1CCC(F)(F)[C@@H](Oc2ccc3ccccc3n2)C1`, for which the pKi in series [1] is 9.30; at Orexin receptor type 2, 6.92. The Ratio Ki with CHO was 240. This molecule also had a solubility in [2] of 13 µM (≈ 5.3 µg/mL).
In general, clearance refers to the volume of plasma or blood freed of the substance per unit of time. In the case of `O=C(c1cccc2[nH]ncc12)N1CCC(F)(F)[C@@H](Oc2ccc3ccccc3n2)C1`, the CLint scaled in [3] came to 761 mL/min/kg. The clearance in [4] is 87.5 mL/min/kg. The pKi in [1] was 8.59; at Orexin receptor type 2, < 5.71. The Ratio Ki with CHO is > 744.
For orientation: bioavailability means the share of a dose that reaches the circulation, judged against a reference dose that is usually intravenous. Read a low bioavailability as little systemic uptake. Turning to `O=C(c1cccc2[nH]cnc12)N1CCC(F)(F)[C@@H](Oc2ccc3ccccc3n2)C1`, the CLint scaled in series [3] is 829 mL/min/kg. In series [5], this molecule yielded a bioavailability of 10%. The molecule further displayed a clearance in [4] of 69 mL/min/kg. Moreover, the pKi in [1] was 8.42; on Orexin receptor type 2, 5.85. Further, the Ratio Ki in the series on CHO was 371.
`O=C(c1nccc2[nH]ccc12)N1CCC(F)(F)[C@@H](Oc2ccc3ccccc3n2)C1`: the “inhibition (INH)” value in series [6] and in series [7] was “Active” in each case. For the same molecule, the pKi in series [1] was 8.80; at Orexin receptor type 2, 6.28. Besides, the Ratio Ki in the series with CHO turned out to be 325. For the same molecule, the solubility in series [8] and in [2] was > 150 µM each time.
On to `Cc1ccccc1C(=O)N1CCC(F)(F)C(Oc2ccc3ccccc3n2)C1` (racemic), for which the “inhibition (INH)” value (at Cytochrome P450 3A4; in series [7]; at Cytochrome P450 2C9) was “Active” in each case. Moreover, the pKi is 7.28 in series [1] and < 5.58 on Orexin receptor type 2. In the series with CHO, the Ratio Ki is > 51. Moreover, in series [9], the solubility entry is on record as “Insoluble”.
`O=C(c1ccccc1-n1nccn1)N1CCC(F)(F)C(Oc2cc(C(F)(F)F)ccn2)C1` (stereo unspecified): the “inhibition (INH)” value (on Cytochrome P450 3A4; in [7]; against Cytochrome P450 2C9) was “Active” in each case. The figures for the pKi (in series [1]; at Orexin receptor type 2) were 6.53 and 7.85, respectively. For the same molecule, in the series on CHO, the Ratio Ki amounted to 0.05. The solubility entry in [9] is recorded as “Insoluble”.
For the molecule `O=C(c1ccccc1-n1nccn1)N1CCC(F)(F)C(Oc2nc3ccccc3s2)C1` (stereo unspecified), the “inhibition (INH)” value (against Cytochrome P450 3A4; in [7]; at Cytochrome P450 2C9) was “Active” in each case. The values for the pKi (in series [1]; at Orexin receptor type 2) were 8.64 and 6.66, respectively. For the same molecule, the Ratio Ki with CHO is 96. In [9], the solubility entry is recorded as “Insoluble”.
For the molecule `O=C(c1ccccc1)N1CCC(F)(F)C(Oc2ccc3ccccc3n2)C1` (racemic), the “inhibition (INH)” value (on Cytochrome P450 3A4; in series [7]; at Cytochrome P450 2C9) was “Active” in each case. Moreover, the figures for the pKi (in series [1]; on Orexin receptor type 2) were 7.26 and < 4.90, respectively. For the same molecule, the Ratio Ki with CHO is > 230. Further, the solubility result in [9] was “Insoluble”.
Turning to `O=C(c1ccnc2[nH]ccc12)N1CCC(F)(F)[C@@H](Oc2ccc3ccccc3n2)C1`, the “inhibition (INH)” value in [6] and in [7] was “Active” throughout. The pKi in [1] is 8.60; on Orexin receptor type 2 it was 5.81. Besides, the Ratio Ki in the series with CHO stood at 626. Besides, the solubility in series [8] and in [2] was > 150 µM throughout.
In the case of `O=C(c1ccccc1-n1nccn1)N1CCC(F)(F)C(Oc2ccccn2)C1` (stereo unspecified), the “inhibition (INH)” value (against Cytochrome P450 3A4; in series [7]; against Cytochrome P450 2C9) was “Active” in each case. Further, the pKi in series [1] was 5.39; at Orexin receptor type 2 it was 5.98. For the same molecule, the Ratio Ki in the series with CHO was found to be 0.26. Further, the solubility entry in series [9] was “Insoluble”.
Turning to `O=C(c1ccccc1-n1nccn1)N1CCC(F)(F)C(Oc2cc3ccccc3cn2)C1` (stereo unspecified), the “inhibition (INH)” value (against Cytochrome P450 3A4; in series [7]; against Cytochrome P450 2C9) was “Active” throughout. The values for the pKi (in series [1]; at Orexin receptor type 2) were 7.23 and 6.42, respectively. The Ratio Ki with CHO was found to be 6.4. Further, in [9], the solubility entry is “Insoluble”.
